Assay results reported in patent US20240415807A1, “AGENT FOR PREVENTING OR AMELIORATING PRURITUS” (KAO CORPORATION, priority 2021, published 2024).

Assays:
C3a receptor = biological target: T1, C3a receptor (Homo sapiens, UniProt Q16581); test: Ca2+-flux assay of C3a receptor antagonism in transfected HEK293 cells; format: cell-based; details: antagonist 10 nM, mouse TLQP-21 1 μM, 15 minutes preincubation, HEK293 with C3a receptor and GNA16 vectors, vs control; FIG. 6
T1 sequence (Q16581 1-482): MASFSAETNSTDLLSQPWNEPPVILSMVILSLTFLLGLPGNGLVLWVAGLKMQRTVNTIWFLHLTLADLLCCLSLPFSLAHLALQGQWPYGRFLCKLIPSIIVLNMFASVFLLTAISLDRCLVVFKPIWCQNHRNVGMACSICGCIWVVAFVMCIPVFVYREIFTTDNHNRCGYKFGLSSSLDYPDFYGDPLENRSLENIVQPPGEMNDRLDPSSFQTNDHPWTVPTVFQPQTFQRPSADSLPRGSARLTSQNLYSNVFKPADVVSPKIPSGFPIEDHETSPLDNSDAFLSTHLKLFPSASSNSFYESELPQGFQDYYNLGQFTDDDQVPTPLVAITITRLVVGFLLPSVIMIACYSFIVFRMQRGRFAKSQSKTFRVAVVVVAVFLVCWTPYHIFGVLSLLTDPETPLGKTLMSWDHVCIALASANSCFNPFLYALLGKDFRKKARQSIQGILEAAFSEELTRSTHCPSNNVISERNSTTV
Method: In the following evaluation, Compound 1 and Compound 2 were dissolved in DMSO and diluted with HBSS as appropriate.
Human Embryonic Kidney cells 293 (HEK293) were used, transfected with the expression vectors necessary for evaluation according to the following.
A transfection solution was prepared by sequentially adding C3a receptor expression vector, GNA16 expression vector, and PEI-MAX (PolyScience) solution to serum-free DMEM medium, mixing well, and then allowing it to stand at room temperature for 20 minutes. […]
The cells for evaluating C3a receptor response described above were seeded in a 96-well Black Polystyrene Microplate (Thermo fisher scientific) precoated with Poly-L-Ornithine Solution (FUJIFILM Wako Pure Chemical). […] After 15 minutes, a mouse TLQP-21 solution was added for C3a receptor stimulation, and the Ca^2+ influx associated with the stimulation was measured over time as intracellular fluorescence intensity (Ex: 494 nm, Em: 525 nm). The value obtained by subtracting the measured value when HBSS was added instead of mouse TLQP-21 solution (blank) was used as the measured value. The C3a receptor antagonist solution and mouse TLQP-21 solution were added after adjusting their concentrations by appropriately diluting them so that their final concentrations when measuring fluorescence intensity were 10 nM and 1 μM, respectively. […]

[1] = system: AD model mice (NC/Nga, mite allergen-induced); test: Amelioration of pruritus in AD model mice (scratching behavior, MicroAct); format: in vivo, mouse; details: 200 μL subcutaneous, 0.5 mg/mL Compound 1 or 0.05 mg/mL Compound 2, three times a week; measured 3 hours; vs solvent alone; FIG. 7
Method: Seven-week-old female NC/Nga mice were used. Preparation of AD model mice: The back of the neck was shaved, and 100 mg of an ointment containing mite allergen: Biostir AD (Biostir Inc.) was applied to the back of the neck and auricular region under isoflurane anesthesia for initial sensitization. Four days after the first application of the ointment containing mite allergen, 150 μL of 4% (w/v) SDS solution and 100 mg of ointment containing mite allergen were applied to the back of the neck and auricular region under isoflurane anesthesia. Thereafter, the same procedure was performed four times at a frequency of once every 3 to 4 days to induce AD-like dermatitis.
Compound 1 or Compound 2, whose C3a receptor antagonism was confirmed in Example 4 above, was used as a C3a receptor antagonist. Compound 1 or Compound 2 was dissolved in saline containing 20% polyethylene glycol 400, of which 200 μL was administered subcutaneously to the back of the neck. The control group was administered with the same amount of only the above solvent. The concentration of the C3a receptor antagonist solution was set at 0.5 mg/mL for Compound 1 and 0.05 mg/mL for Compound 2. […]
Four days after the last application of the ointment containing mite allergen, the scratching behavior was measured for 3 hours after the last administration of the sample. […]

[2] = system: AEW model mice (C57BL/6J); test: Amelioration of pruritus in AEW model mice (scratching behavior, MicroAct); format: in vivo, mouse; details: 200 μL subcutaneous, 0.5 mg/mL Compound 1 or 0.05 mg/mL Compound 2, once daily for 8 days; measured 3 hours; vs solvent alone; FIG. 8
Excerpt: The animals used were male C57BL/6J mice.
Preparation of AEW model: The back of the neck was shaved, and absorbent cotton soaked with a 1:1 (v/v) mixture of acetone and diethyl ether was applied and allowed to stand for 15 seconds. Immediately thereafter, absorbent cotton soaked with water was applied for 30 seconds. This treatment was repeated twice/day (morning and evening) for 7 days.
Compound 1 or Compound 2, whose C3a receptor antagonism was confirmed in Example 4 above, was used as a C3a receptor antagonist. Compound 1 or Compound 2 was dissolved in saline containing 20% polyethylene glycol 400, of which 200 μL was administered subcutaneously to the back of the neck. The control group was administered with the same amount of only the above solvent. The concentration of the C3a receptor antagonist solution was set at 0.5 mg/mL for Compound 1 and 0.05 mg/mL for Compound 2. Sample administration started after the first AEW treatment and was performed at a frequency of once daily for 8 days.
Sixteen hours after the last AEW treatment, the scratching behavior was measured for 3 hours after the last administration of the sample. MicroAct (Neuroscience) was used to measure the scratching behavior.

Structure (SMILES) | Fluorescence intensity due to C3a receptor stimulation by TLQP-21 (integrated over 3 min) (C3a receptor) | Scratching behavior in AD model mice [1] | Scratching behavior in AEW model mice [2]
N=C(N)NCCC[C@H](NC(=O)c1ccc(C(c2ccccc2)c2ccccc2)s1)C(=O)O [Compound 1, L-arginine, N2-[[5-(diphenylmethyl)-2-thienyl]carbonyl]] | greatly suppressed | significant decrease in scratching behavior | significant decrease in scratching behavior
Cc1cc(C(c2ccc(Cl)cc2)c2ccc(Cl)cc2)sc1C(=O)N[C@@H](CCCNC(=N)N)C(=O)O [Compound 2, L-arginine, N2-[[5-[bis(4-chlorophenyl)methyl]-3-methyl-2-thienyl]carbonyl]] | greatly suppressed | significant decrease in scratching behavior | significant decrease in scratching behavior
